From patent US8114880B2, “Piperidine or piperazine substituted tetrahydro-naphthalene-1-carboxylic acid MTP inhibiting compounds” (Janssen Pharmaceutica N.V., priority 2006, dated 2012) come the findings set out here.

The IC50 is the midpoint of a concentration-inhibition curve. A low value points to greater potency in that assay.

The structures appear in SMILES notation.

MTP, sequence (P55157 19-894, species assumed): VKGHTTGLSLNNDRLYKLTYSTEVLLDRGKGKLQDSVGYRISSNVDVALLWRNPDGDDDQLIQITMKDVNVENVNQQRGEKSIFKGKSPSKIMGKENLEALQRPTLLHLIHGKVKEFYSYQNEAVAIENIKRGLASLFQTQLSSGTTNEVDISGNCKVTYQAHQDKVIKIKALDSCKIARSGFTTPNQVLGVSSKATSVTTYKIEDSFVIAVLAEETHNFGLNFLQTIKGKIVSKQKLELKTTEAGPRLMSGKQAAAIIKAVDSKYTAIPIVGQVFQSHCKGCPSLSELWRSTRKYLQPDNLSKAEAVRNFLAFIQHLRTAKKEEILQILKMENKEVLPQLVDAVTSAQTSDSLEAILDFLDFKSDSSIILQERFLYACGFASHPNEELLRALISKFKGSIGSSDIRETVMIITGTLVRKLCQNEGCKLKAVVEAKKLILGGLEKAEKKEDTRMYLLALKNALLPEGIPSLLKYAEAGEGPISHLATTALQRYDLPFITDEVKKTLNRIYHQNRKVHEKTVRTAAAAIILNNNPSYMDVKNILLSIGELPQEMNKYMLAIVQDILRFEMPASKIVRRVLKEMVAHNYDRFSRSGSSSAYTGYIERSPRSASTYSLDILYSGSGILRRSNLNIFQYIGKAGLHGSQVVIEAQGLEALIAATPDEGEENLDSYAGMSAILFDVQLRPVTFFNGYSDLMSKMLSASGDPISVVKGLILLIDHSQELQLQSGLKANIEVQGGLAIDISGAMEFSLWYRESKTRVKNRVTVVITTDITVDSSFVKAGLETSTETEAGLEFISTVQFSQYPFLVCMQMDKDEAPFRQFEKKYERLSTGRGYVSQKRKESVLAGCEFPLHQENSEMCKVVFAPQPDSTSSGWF
MTP, sequence (P07237 18-508 partner, species assumed): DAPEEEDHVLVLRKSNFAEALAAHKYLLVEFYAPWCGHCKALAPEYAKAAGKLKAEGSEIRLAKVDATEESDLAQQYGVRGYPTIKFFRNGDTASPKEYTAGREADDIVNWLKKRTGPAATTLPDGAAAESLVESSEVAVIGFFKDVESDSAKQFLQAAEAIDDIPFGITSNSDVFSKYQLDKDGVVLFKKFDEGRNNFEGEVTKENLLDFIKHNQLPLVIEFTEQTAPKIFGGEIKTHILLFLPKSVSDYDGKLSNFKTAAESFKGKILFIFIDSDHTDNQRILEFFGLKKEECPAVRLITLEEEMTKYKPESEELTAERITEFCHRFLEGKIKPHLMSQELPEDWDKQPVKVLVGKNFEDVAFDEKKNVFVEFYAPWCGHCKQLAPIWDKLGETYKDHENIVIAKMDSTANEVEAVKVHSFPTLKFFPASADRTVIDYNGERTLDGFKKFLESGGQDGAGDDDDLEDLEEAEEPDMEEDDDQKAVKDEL

One assay deals with HepG2 cells. In words: Quantification of the secretion of ApoB. Type of assay: cell-based. The conditions noted are these: Homo sapiens, HepG2, 24 h, 24 hours of incubation, pIC50 = -log IC50. How it is done:
HepG2 cells were cultured in 24-well plates in MEM Rega 3 containing 10% fetal calf serum. At 70% confluency, the medium was changed and the test compound or carrier (DMSO, 0.4% final concentration) was added. After 24 hours of incubation, the medium was transferred to Eppendorf tubes and cleared by centrifugation. A sheep antibody directed against either apoB was added to the supernatant and the mixture was kept at 8° C. for 24 hours. Then, rabbit anti-sheep antibody was added and the immune complex was allowed to precipitate for 24 hours at 8° C. The immunoprecipitate was pelleted by centrifugation for 25 minutes at 1320 g and washed twice with a buffer containing 40 mM Mops, 40 mM NaH2PO4, 100 mM NaF, 0.2 mM DTT, 5 mM EDTA, 5 mM EGTA, 1% Triton-X-100, 0.5% sodium deoxycholate (DOC), 0.1% SDS, 0.2 μM leupeptin and 0.2 μM PMSF. Radioactivity in the pellet was quantified by liquid scintillation counting. The IC50 values are usually converted to pIC50 values (=−log IC50 value) for ease of use.
As for `CCOC(=O)[C@H](CC(C)C)NC(=O)[C@@]1(c2ccccc2)CC[C@H](C(=O)N2CCC(NC(=O)c3ccccc3OC)CC2)c2ccccc21` [Co. No. 70], the IC50 is > 1000 nM.

`CCOC(=O)C[C@H](NC(=O)[C@@]1(c2ccccc2)CC[C@H](C(=O)N2CCC(NC(=O)c3ccccc3OC)CC2)c2ccccc21)C(=O)OCC` [Co. No. 72]: the IC50 was > 1000 nM.

As to `CCOC(=O)C[C@H](NC(=O)[C@@]1(c2ccccc2)CC[C@H](C(=O)N2CCC(NC(=O)c3ccccc3OC)CC2)c2ccccc21)C(=O)OC` [Co. No. 73], the concentration for half-maximal inhibition (IC50) was > 1000 nM.

In the case of `CCOC(=O)CC[C@H](NC(=O)[C@@]1(c2ccccc2)CC[C@H](C(=O)N2CCC(NC(=O)c3ccccc3OC)CC2)c2ccccc21)C(=O)OCC` [Co. No. 74], the IC50 is > 1000 nM.

The compound `COC(=O)[C@H](CCCCNC(=O)OC(C)(C)C)NC(=O)[C@@]1(c2ccccc2)CC[C@H](C(=O)N2CCC(NC(=O)c3ccccc3OC)CC2)c2ccccc21` [Co. No. 75] showed an IC50 of 20.2 nM.

Take `CCOC(=O)[C@H](NC(=O)[C@@]1(c2ccccc2)CC[C@H](C(=O)N2CCC(NC(=O)c3ccccc3OC)CC2)c2ccccc21)c1ccccc1` [Co. No. 79]: the IC50 is 128 nM.

`CCOC(=O)[C@@H](NC(=O)[C@@]1(c2ccccc2)CC[C@H](C(=O)N2CCC(NC(=O)c3ccccc3OC)CC2)c2ccccc21)c1ccccc1` [Co. No. 80] showed an IC50 of 548 nM.

`CCOC(=O)[C@H](Cc1ccccc1)NC(=O)[C@@]1(c2ccccc2)CC[C@H](C(=O)N2CCC(NC(=O)c3ccccc3OC)CC2)c2ccccc21` [Co. No. 81]: the IC50 was > 1000 nM.

Take `CCOC(=O)[C@@H](Cc1ccccc1)NC(=O)[C@@]1(c2ccccc2)CC[C@H](C(=O)N2CCC(NC(=O)c3ccccc3OC)CC2)c2ccccc21` [Co. No. 82]: inhibition was half-maximal at 289 nM (IC50).

On to `CCOC(=O)C1CCCCN1C(=O)[C@@]1(c2ccccc2)CC[C@H](C(=O)N2CCC(NC(=O)c3ccccc3OC)CC2)c2ccccc21` (stereo partly shown) [Co. No. 83], for which half-maximal inhibition (IC50) required 670 nM.

Regarding `CCOC(=O)C1CCCN(C(=O)[C@@]2(c3ccccc3)CC[C@H](C(=O)N3CCC(NC(=O)c4ccccc4OC)CC3)c3ccccc32)C1` (stereo partly shown) [Co. No. 84], the IC50 was > 1000 nM.

`CCOC(=O)C(Cc1ccc(O)cc1)NC(=O)[C@@]1(c2ccccc2)CC[C@H](C(=O)N2CCC(NC(=O)c3ccccc3OC)CC2)c2ccccc21` (stereo partly shown) [Co. No. 85]: the IC50 is > 1000 nM.

The compound `CCOC(=O)C(Cc1c[nH]c2ccccc12)NC(=O)[C@@]1(c2ccccc2)CC[C@H](C(=O)N2CCC(NC(=O)c3ccccc3OC)CC2)c2ccccc21` (stereo partly shown) [Co. No. 86] gave an IC50 of 653 nM.

For `COc1ccccc1C(=O)NC1CCN(C(=O)[C@H]2CC[C@@](C(=O)NCCC(=O)OC(C)(C)C)(c3ccccc3)c3ccccc32)CC1` [Co. No. 88], 20.6 nM corresponded to half-maximal inhibition (IC50).

Turning to `COc1ccccc1C(=O)NC1CCN(C(=O)[C@H]2CC[C@@](C(=O)NCCC(=O)O)(c3ccccc3)c3ccccc32)CC1` [Co. No. 90], the IC50 was > 1000 nM.

The compound `COc1ccccc1C(=O)NC1CCN(C(=O)[C@H]2CC[C@@](C(=O)N[C@H](Cc3ccccc3)C(=O)OC(C)(C)C)(c3ccccc3)c3ccccc32)CC1` [Co. No. 96] gave a concentration for half-maximal inhibition (IC50) of 512 nM.

Turning to `COc1ccccc1C(=O)NC1CCN(C(=O)[C@H]2CC[C@@](C(=O)N[C@H](C(=O)OC(C)(C)C)C(C)C)(c3ccccc3)c3ccccc32)CC1` [Co. No. 102], the IC50 is 168 nM.

Consider `COc1ccccc1C(=O)NC1CCN(C(=O)[C@H]2CC[C@@](C(=O)N[C@@H](C(=O)OC(C)(C)C)C(C)C)(c3ccccc3)c3ccccc32)CC1` [Co. No. 103], for which it took 382 nM to reach half-maximal inhibition (IC50).

The compound `COc1ccccc1C(=O)NC1CCN(C(=O)[C@H]2CC[C@@](C(=O)N[C@@H](CC(C)C)C(=O)OC(C)(C)C)(c3ccccc3)c3ccccc32)CC1` [Co. No. 104] had an IC50 of 171 nM.

In turn, `COc1ccccc1C(=O)NC1CCN(C(=O)[C@H]2CC[C@@](C(=O)N[C@@H](COC(C)(C)C)C(=O)OC(C)(C)C)(c3ccccc3)c3ccccc32)CC1` [Co. No. 105] showed an IC50 of 271 nM.

The next assay has as its target MTP (Homo sapiens, UniProt P55157). In words: MTP assay (triglyceride transfer from donor to acceptor vesicles). Type of assay: biochemical. The conditions noted are these: MTP activity, percent triglyceride transfer from donor to acceptor vesicles, 37° C. Put shortly: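 Radiolabelled triglyceride transfer from donor vesicles (phosphatidylcholine, 7.5 mol % cardiolipin, 0.25 mol % glycerol tri[1-^14C]-oleate) to phosphatidylcholine acceptor vesicles with BSA, pH 7.5 Tris buffer; compounds in DMSO (0.13% final), 5 min preincubation at 37° C before MTP addition. Donor vesicles removed on DEAE-52; acceptor-supernatant ^14C counts give percent transfer.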
In turn, `CCOC(=O)[C@H](CC(C)C)NC(=O)[C@@]1(c2ccccc2)CC[C@H](C(=O)N2CCC(NC(=O)c3ccccc3OC)CC2)c2ccccc21` [Co. No. 70] showed an IC50 of 35.3 nM.

Regarding `CCOC(=O)C[C@H](NC(=O)[C@@]1(c2ccccc2)CC[C@H](C(=O)N2CCC(NC(=O)c3ccccc3OC)CC2)c2ccccc21)C(=O)OCC` [Co. No. 72], the concentration for half-maximal inhibition (IC50) is 10.7 nM.

Turning to `CCOC(=O)C[C@H](NC(=O)[C@@]1(c2ccccc2)CC[C@H](C(=O)N2CCC(NC(=O)c3ccccc3OC)CC2)c2ccccc21)C(=O)OC` [Co. No. 73], the IC50 is > 100 nM.

Regarding `CCOC(=O)CC[C@H](NC(=O)[C@@]1(c2ccccc2)CC[C@H](C(=O)N2CCC(NC(=O)c3ccccc3OC)CC2)c2ccccc21)C(=O)OCC` [Co. No. 74], the IC50 is 5.08 nM.

On to `COC(=O)[C@H](CCCCNC(=O)OC(C)(C)C)NC(=O)[C@@]1(c2ccccc2)CC[C@H](C(=O)N2CCC(NC(=O)c3ccccc3OC)CC2)c2ccccc21` [Co. No. 75], for which it took 2.24 nM to reach half-maximal inhibition (IC50).

The compound `CCOC(=O)[C@H](NC(=O)[C@@]1(c2ccccc2)CC[C@H](C(=O)N2CCC(NC(=O)c3ccccc3OC)CC2)c2ccccc21)c1ccccc1` [Co. No. 79] showed an IC50 of 33.3 nM.

`CCOC(=O)[C@@H](NC(=O)[C@@]1(c2ccccc2)CC[C@H](C(=O)N2CCC(NC(=O)c3ccccc3OC)CC2)c2ccccc21)c1ccccc1` [Co. No. 80] showed an IC50 of 70.1 nM.

Compound `CCOC(=O)[C@H](Cc1ccccc1)NC(=O)[C@@]1(c2ccccc2)CC[C@H](C(=O)N2CCC(NC(=O)c3ccccc3OC)CC2)c2ccccc21` [Co. No. 81] showed a concentration for half-maximal inhibition (IC50) of 12.6 nM.

Take `CCOC(=O)[C@@H](Cc1ccccc1)NC(=O)[C@@]1(c2ccccc2)CC[C@H](C(=O)N2CCC(NC(=O)c3ccccc3OC)CC2)c2ccccc21` [Co. No. 82]: the IC50 was 12.9 nM.

As for `CCOC(=O)C1CCCCN1C(=O)[C@@]1(c2ccccc2)CC[C@H](C(=O)N2CCC(NC(=O)c3ccccc3OC)CC2)c2ccccc21` (stereo partly shown) [Co. No. 83], 71.4 nM corresponded to half-maximal inhibition (IC50).

Compound `CCOC(=O)C1CCCN(C(=O)[C@@]2(c3ccccc3)CC[C@H](C(=O)N3CCC(NC(=O)c4ccccc4OC)CC3)c3ccccc32)C1` (stereo partly shown) [Co. No. 84] had an IC50 of 228 nM.

With `CCOC(=O)C(Cc1ccc(O)cc1)NC(=O)[C@@]1(c2ccccc2)CC[C@H](C(=O)N2CCC(NC(=O)c3ccccc3OC)CC2)c2ccccc21` (stereo partly shown) [Co. No. 85], the IC50 was > 100 nM.

For the compound `CCOC(=O)C(Cc1c[nH]c2ccccc12)NC(=O)[C@@]1(c2ccccc2)CC[C@H](C(=O)N2CCC(NC(=O)c3ccccc3OC)CC2)c2ccccc21` (stereo partly shown) [Co. No. 86], the midpoint of inhibition, the IC50, lay at 66.5 nM.

`COc1ccccc1C(=O)NC1CCN(C(=O)[C@H]2CC[C@@](C(=O)NCCC(=O)OC(C)(C)C)(c3ccccc3)c3ccccc32)CC1` [Co. No. 88] showed an IC50 of 2.15 nM.

`COc1ccccc1C(=O)NC1CCN(C(=O)[C@H]2CC[C@@](C(=O)NCCC(=O)O)(c3ccccc3)c3ccccc32)CC1` [Co. No. 90] had an IC50 of 2130 nM.

Regarding `COc1ccccc1C(=O)NC1CCN(C(=O)[C@H]2CC[C@@](C(=O)N[C@H](Cc3ccccc3)C(=O)OC(C)(C)C)(c3ccccc3)c3ccccc32)CC1` [Co. No. 96], inhibition was half-maximal at 38.2 nM (IC50).

Consider `COc1ccccc1C(=O)NC1CCN(C(=O)[C@H]2CC[C@@](C(=O)N[C@H](C(=O)OC(C)(C)C)C(C)C)(c3ccccc3)c3ccccc32)CC1` [Co. No. 102], for which the IC50 is 13.6 nM.

Consider `COc1ccccc1C(=O)NC1CCN(C(=O)[C@H]2CC[C@@](C(=O)N[C@@H](C(=O)OC(C)(C)C)C(C)C)(c3ccccc3)c3ccccc32)CC1` [Co. No. 103], for which the half-maximal inhibitory concentration (IC50) was 61 nM.

`COc1ccccc1C(=O)NC1CCN(C(=O)[C@H]2CC[C@@](C(=O)N[C@@H](CC(C)C)C(=O)OC(C)(C)C)(c3ccccc3)c3ccccc32)CC1` [Co. No. 104] had an IC50 of 21.6 nM.

`COc1ccccc1C(=O)NC1CCN(C(=O)[C@H]2CC[C@@](C(=O)N[C@@H](COC(C)(C)C)C(=O)OC(C)(C)C)(c3ccccc3)c3ccccc32)CC1` [Co. No. 105] gave an IC50 of 48.8 nM.
